This passage reports Emax, EC50 and Max. % results from US8629143B2, “Potassium channel modulators” (AbbVie Inc., priority 2009, dated 2014).

A value given as a limit tells only on which side of the number the result lay.

The target in this assay is T1, KCNQ 2/3 channels (HEK293 cells stably expressing human KCNQ2 and KCNQ3 subunits) (Homo sapiens, UniProt O43525+O43526).
T1 construct: expressed in transfected cells; host or cells: HEK293
As to the kind of experiment: KCNQ2/3 channel activation, thallium flux FLIPR assay with BTC-AM dye. The format is cell-based. As to conditions: for Emax: HEK293, read-out: Max. %; for EC50: HEK293 cells expressing human KCNQ2 and KCNQ3, thallium flux, FLIPR. On the procedure:
The following example describes the assay that can be used to identify compounds that activate KCNQ 2/3 channels.
HEK293 cells stably expressing human KCNQ2 and KCNQ3 subunits were seeded in 96-well, black-walled, clear-bottomed, poly-D-lysine coated plates (BD Biosciences, Bedford, Mass.) at a density of 1×10^5 cells per well 24 hours before the assay. On the assay day, BTC-AM dye (Invitrogen, Carlsbad, Calif.) was loaded into the cells by replacing the cell culture medium with 55 μL/well of 3 μg/mL dye in DPBS. Dye loading was allowed to proceed for 2 hours at room temperature and then cells were washed twice with 50 μL/well of assay buffer (in mM: 10 HEPES pH 7.3, 5 glucose, 140 Na-gluconate, 2.5 K-gluconate, 3.6 Ca-gluconate, 2 MgSO4, 0.1 Ouabain) to remove unloaded dye. Cells were incubated in 50 μL of assay buffer before loading onto a FLIPR system (Molecular Devices, Sunnyvale, Calif.). Various concentrations of compounds to be assayed were added to the cells in 50 μL of assay buffer and incubated for 4 minutes. The fluorescence signal was initiated by adding 100 μL of assay buffer containing 6 mM TlNO3 and 10 mM K2SO4. Fluors were excited using the 488-nm line of an argon laser and emission was filtered using a 540±30 nm bandpass filter. Fluorescent signals were recorded for 3 minutes. Sums of the responses over basal responses were plotted versus concentrations of test compounds to obtain an EC50 value. The maximum response for each test compound was determined relative to the response produced by 10 μM retigabine. The maximum response of retigabine at 10 μM was set at 100%.

[1] abbreviates: maximum response relative to the response produced by 10 μM retigabine (set at 100%).

For orientation: EC50 means the concentration that produces a half-maximal response.

With `O=C(CC1CC2CCC1C2)Nn1nc(CCc2ccccc2)c2ccccc2c1=O` (racemic) [Example 167, (±)-2-(exo-bicyclo[2.2.1]hept-2-yl)-N-[1-oxo-4-(2-phenylethyl)phthalazin-2(1H)-yl]acetamide], the half-maximal effective concentration (EC50) is under 100 nM. For the same compound, the Emax under setting [1] was 144%.

`O=C(C[C@@H]1C[C@@H]2CC[C@H]1C2)Nn1nc(-c2ccc(C(F)(F)F)cc2)c2ccccc2c1=O` [Example 147, 2-[(1S,2S,4R)-bicyclo[2.2.1]hept-2-yl]-N-{1-oxo-4-[4-(trifluoromethyl)phenyl]phthalazin-2(1H)-yl}acetamide] registered an EC50 of 100 to 500 nM. For the same compound, the Emax under setting [1] is 154%.

`O=C(CC12CC3CC(CC(C3)C1)C2)Nn1nc(-c2ccccc2)c2c(F)ccc(F)c2c1=O` [Example 15, 2-(1-adamantyl)-N-(5,8-difluoro-1-oxo-4-phenylphthalazin-2(1H)-yl)acetamide] yielded an EC50 of under 100 nM. In addition, the Emax under setting [1] stood at 140%.

Compound `O=C(Cc1cccc(F)c1F)Nn1nc(-c2ccccc2)c2ccccc2c1=O` [Example 25, 2-(2,3-difluorophenyl)-N-(1-oxo-4-phenylphthalazin-2(1H)-yl)acetamide] registered a concentration giving a half-maximal response (EC50) of 1000 to 10000 nM. For the same compound, the Emax under setting [1] turned out to be 139%.

The compound `O=C(Cc1ccc(Cl)cc1)Nn1nc(-c2cccc(Cl)c2)c2ccccc2c1=O` [Example 127, 2-(4-chlorophenyl)-N-[4-(3-chlorophenyl)-1-oxophthalazin-2(1H)-yl]acetamide] came in with a half-maximal effective concentration (EC50) of 100 to 500 nM. For the same compound, under setting [1], the Emax is 101%.

`O=C(Cc1ccc2c(c1)OCO2)Nn1nc(-c2ccc(Cl)cc2)c2ccccc2c1=O` [Example 194, 2-(1,3-benzodioxol-5-yl)-N-[4-(4-chlorophenyl)-1-oxophthalazin-2(1H)-yl]acetamide] registered a 50% effective concentration (EC50) of 500 to 1000 nM. For the same compound, the Emax under setting [1] was found to be 248%.

As for `O=C(C[C@@H]1C[C@@H]2C=C[C@H]1C2)Nn1nc(-c2ccc(F)cc2)c2ccccc2c1=O` [Example 130, 2-[(1S,2S,4S)-bicyclo[2.2.1]hept-5-en-2-yl]-N-[4-(4-fluorophenyl)-1-oxophthalazin-2(1H)-yl]acetamide], the half-maximal effective concentration (EC50) is under 100 nM. Moreover, the Emax under setting [1] came out at 156%.

`O=C(Cc1cc(F)cc(F)c1)Nn1nc(-c2cccc(Cl)c2)c2ccccc2c1=O` [Example 128, N-[4-(3-chlorophenyl)-1-oxophthalazin-2(1H)-yl]-2-(3,5-difluorophenyl)acetamide]: the EC50 lay within 100 to 500 nM. The Emax under setting [1] turned out to be 140%.

In turn, `CC(C)c1ccc(-c2nn(NC(=O)Cc3cc(F)cc(F)c3)c(=O)c3ccccc23)cc1` [Example 171, 2-(3,5-difluorophenyl)-N-[4-(4-isopropylphenyl)-1-oxophthalazin-2(1H)-yl]acetamide] registered an EC50 of 500 to 1000 nM. In addition, the Emax under setting [1] is 134%.

The compound `O=C(CC1(c2ccc(Cl)cc2)CCC1)Nn1nc(C(F)(F)F)c2ccccc2c1=O` [Example 40, 2-[1-(4-chlorophenyl)cyclobutyl]-N-[1-oxo-4-(trifluoromethyl)phthalazin-2(1H)-yl]acetamide] gave an EC50 of over 10000 nM. The Emax under setting [1] came out at 7%.

Regarding `O=C(CC1(C(F)(F)F)CCCC1)Nn1nc(-c2ccc(Cl)cc2)c2ccccc2c1=O` [Example 87, N-[4-(4-chlorophenyl)-1-oxophthalazin-2(1H)-yl]-2-[1-(trifluoromethyl)cyclopentyl]acetamide], the 50% effective concentration (EC50) lay within 500 to 1000 nM. Also, the Emax under setting [1] was 104%.

In the case of `CS(=O)(=O)c1ccc(CC(=O)Nn2nc(C(F)(F)F)c3ccccc3c2=O)cc1` [Example 49, 2-[4-(methylsulfonyl)phenyl]-N-[1-oxo-4-(trifluoromethyl)phthalazin-2(1H)-yl]acetamide], the EC50 was over 10000 nM. For the same compound, the Emax under setting [1] worked out at 3%.

Consider `CC(C)(C)c1nn(NC(=O)CC(C)(C)c2ccccc2)c(=O)c2ccccc12` [Example 64, N-(4-tert-butyl-1-oxophthalazin-2(1H)-yl)-3-methyl-3-phenylbutanamide], for which the concentration giving a half-maximal response (EC50) was under 100 nM. Further, the Emax under setting [1] came to 157%.

Regarding `O=C(CC1CCC1)Nn1nc(C(F)(F)F)c2ccccc2c1=O` [Example 45, 2-cyclobutyl-N-[1-oxo-4-(trifluoromethyl)phthalazin-2(1H)-yl]acetamide], the half-maximal effective concentration (EC50) was 1000 to 10000 nM. In addition, the Emax under setting [1] came out at 84%.

The compound `CC(C)c1ccc(-c2nn(NC(=O)C[C@H]3C[C@@H]4CC[C@H]3C4)c(=O)c3ccccc23)cc1` (racemic) [Example 168, (±)-2-(exo-bicyclo[2.2.1]hept-2-yl)-N-[4-(4-isopropylphenyl)-1-oxophthalazin-2(1H)-yl]acetamide] showed an EC50 of 100 to 500 nM. Under setting [1], the Emax stood at 134%.

Consider `O=C(CC1(c2ccc(Cl)cc2)CC1)Nn1nc(C(F)(F)F)c2ccccc2c1=O` [Example 39, 2-[1-(4-chlorophenyl)cyclopropyl]-N-[1-oxo-4-(trifluoromethyl)phthalazin-2(1H)-yl]acetamide], for which the EC50 was over 10000 nM. The Emax under setting [1] was determined as 11%.

Consider `O=C(CC12CC3CC(CC(C3)C1)C2)Nn1nc(-c2ccc(Cl)cc2)c2ccccc2c1=O` [Example 116, 2-(adamantan-1-yl)-N-[4-(4-chlorophenyl)-1-oxophthalazin-2(1H)-yl]acetamide], for which the EC50 is under 100 nM. The Emax under setting [1] came to 132%.

In turn, `O=C(Cc1cc(F)cc(F)c1)Nn1nc(C2CCC2)c2ccccc2c1=O` [Example 69, N-(4-cyclobutyl-1-oxophthalazin-2(1H)-yl)-2-(3,5-difluorophenyl)acetamide] showed an EC50 of under 100 nM. Further, the Emax under setting [1] is 138%.

`Cc1cccc(CC(=O)Nn2nc(-c3ccc(Cl)cc3)c3ccccc3c2=O)c1` [Example 108, N-[4-(4-chlorophenyl)-1-oxophthalazin-2(1H)-yl]-2-(3-methylphenyl)acetamide] had a concentration giving a half-maximal response (EC50) of 100 to 500 nM. Also, under setting [1], the Emax came out at 96%.

The compound `COc1ccc(-c2nn(NC(=O)Cc3cc(F)cc(F)c3)c(=O)c3ccc(Br)cc23)cc1` [Example 176, N-[6-bromo-4-(4-methoxyphenyl)-1-oxophthalazin-2(1H)-yl]-2-(3,5-difluorophenyl)acetamide] yielded an EC50 of 100 to 500 nM. For the same compound, the Emax under setting [1] turned out to be 33%.

For `O=C(Cc1cc(F)ccc1F)Nn1nc(-c2ccccc2)c2ccccc2c1=O` [Example 27, 2-(2,5-difluorophenyl)-N-(1-oxo-4-phenylphthalazin-2(1H)-yl)acetamide], the EC50 was 500 to 1000 nM. Under setting [1], the Emax is 92%.

With `Cc1ccc(C)c(-c2nn(NC(=O)CC3CC4CCC3C4)c(=O)c3ccccc23)c1` (racemic) [Example 155, (±)-2-(exo-bicyclo[2.2.1]hept-2-yl)-N-[4-(2,5-dimethylphenyl)-1-oxophthalazin-2(1H)-yl]acetamide], the EC50 was under 100 nM. The same compound came in with a Max. % under setting [1] of 165%.

For the compound `O=C(CC12CC3CC(CC(O)(C3)C1)C2)Nn1nc(-c2ccccc2)c2ccsc2c1=O` [Example 180, 2-(3-hydroxyadamantan-1-yl)-N-(7-oxo-4-phenylthieno[2,3-d]pyridazin-6(7H)-yl)acetamide], the EC50 was over 10000 nM. For the same compound, the Emax under setting [1] is -3%.

`COc1ccc(CC(=O)Nn2nc(-c3ccc(Cl)cc3)c3ccccc3c2=O)cc1` [Example 104, N-[4-(4-chlorophenyl)-1-oxophthalazin-2(1H)-yl]-2-(4-methoxyphenyl)acetamide] had an EC50 of 1000 to 10000 nM. Besides, the Emax under setting [1] stood at 97%.

As for `CN(C)c1ccc(CC(=O)Nn2nc(C(F)(F)F)c3ccccc3c2=O)cc1` [Example 47, 2-[4-(dimethylamino)phenyl]-N-[1-oxo-4-(trifluoromethyl)phthalazin-2(1H)-yl]acetamide], the 50% effective concentration (EC50) was over 10000 nM. Further, under setting [1], the Emax was 7%.

The compound `Cc1ccc(-c2nn(NC(=O)Cc3ccc(Cl)cc3)c(=O)c3ccccc23)c(C)c1` [Example 161, 2-(4-chlorophenyl)-N-[4-(2,4-dimethylphenyl)-1-oxophthalazin-2(1H)-yl]acetamide] registered an EC50 of 100 to 500 nM. Under setting [1], the Emax amounted to 145%.

Compound `O=C(Cc1cccc(Cl)c1)Nn1nc(-c2ccc(Cl)cc2)c2ccccc2c1=O` [Example 103, 2-(3-chlorophenyl)-N-[4-(4-chlorophenyl)-1-oxophthalazin-2(1H)-yl]acetamide] showed an EC50 of 100 to 500 nM. The Emax under setting [1] worked out at 140%.

The compound `O=C(CCc1ccccc1)Nn1nc(C(F)(F)F)c2ccccc2c1=O` [Example 50, N-[1-oxo-4-(trifluoromethyl)phthalazin-2(1H)-yl]-3-phenylpropanamide] returned an EC50 of over 10000 nM. Also, under setting [1], the Emax was 116%.

With `O=C(C[C@H]1C[C@@H]2CC[C@H]1C2)Nn1nc(-c2ccc(F)cc2F)c2ccccc2c1=O` (racemic) [Example 134, (±)-2-(exo-bicyclo[2.2.1]hept-2-yl)-N-[4-(2,4-difluorophenyl)-1-oxophthalazin-2(1H)-yl]acetamide], the EC50 was under 100 nM. In addition, under setting [1], the Emax came to 192%.
